Measured values: EP2417971A1, “Clomiphene for use in increasing the chances of pregnancy of women having a low ovarian reserve” (Nitzschke, Markus, priority 2010, dated 2012)
Where “and” joins values, the source holds several entries; their conditions need not be identical. Equal values may be shown once. Where a name gives a salt, the structure may show the parent alone.

How the values were obtained:
[1] = tested on: endometrium; set-up: species or system human; settings: in vivo
Text: Teramoto has therefore used Clomiphene, inter alia, to control the ovulation process in the course of an in vitro fertilization (IVF). To make use of both the stimulating and the inhibiting effect of Clomiphene, Teramoto et al had to administer Clomiphene right at the beginning of the menstrual cycle until the day of induction of ovulation, which is usually between the 10th and 12th day of said cycle. The stimulating effect occurs prior to the 6th cycle day, before a dominant follicle is selected, whereas the inhibiting effect starts on day six or seven after selection of the dominant follicle. However, as we observed, if Clomiphene is administered in the described manner, the growth of the endometrium is inhibited at the same time due to the anti-estrogenic effect of Clomiphene (blocking of the estrogen receptors) and thus the embryos should not be transferred in the same cycle, because implantation success rate is low. In order to increase the implantation success rate, the resulting embryos should be frozen and transferred in the next cycle where no Clomiphene medication is conducted.

[2] = tested on: women with low ovarian reserve; assay: Case study: Clomiphene citrate from day 6 of the cycle to avoid pathological premature LH rise, followed by IVF; type: in vivo, human
Protocol: Women with low ovarian reserve take 50 mg oral Clomiphene Citrate every second day or 25 mg each day after the 6th day of the menstrual cycle until the follicle has reached a desired size of 18-20 mm. Subsequently ovulation is artificially triggered by the administration of GnRH (Gonadotropin releasing hormone) analogs, which is preferred, or human chorionic gonadotropin (HCG), 36-40 h after the administration of the ovulation inducing agent, the women had sexual intercourse. Alternatively, the ovum was obtained after 36 h and was fertilized in vitro in the lab.
A nulliparous person with 6 years of infertility had regular short cycles of 23 days. When they were younger, they had longer cycles of up to 29 days, but starting, their cycles became gradually shorter. […] When a vaginal ultrasound scan was performed that day, a follicle of 14 mm on the left ovary was found. […] Their spouse's semen analysis was normal. They had failed six cycles of gonadotrophins-IUI (intra-uterine inseminations) and 4 IVF attempts. The last two cycles had to be cancelled due to low response in a GnRH antagonist protocol with FSH injections of up to 450 IU per day. On day 7 of their cycle a hormonal assay and vaginal ultrasound scan were performed. […] The women came back two days later. The follicle was gone and an oral contraceptive pill (OCP) for 10 days was started in order to prevent follicle growth during luteal phase. Five days after the last OCP, menstrual bleeding started. No dominant follicle could be seen, serum estradiol was 32 pg/mL and FSH 14 IU/L.
The person was again examined on day 9 of their cycle. […] Since oocytes ovulated from follicles smaller than 16 mm are often of a poor quality and do seldom produce a pregnancy, it was refrained from trying to retrieve the egg this time. The person ovulated the next day.
The person was examined again on day 6 of their next cycle. They had 2 small follicles of 12mm and 11mm on their left ovary. Serum estradiol was 113 pg/mL, FSH 7.7 IU/L and LH 5.6 IU/L. In order to avoid another pathological premature LH rise on a small follicle this cycle, the person was treated with small doses of Clomiphene citrate, i.e. 50mg Clomiphene citrate on day 6, 8 and 10 of the cycle. On day 11 two follicles on the left ovarian was found with sizes of 19mm and 15mm. Serum estradiol was 621 pg/mL and LH […]. Ovulation induction with 0.2mg triptorelix was performed on the evening of the next day and an oocyte was retrieved 36 hours later. Two mature eggs could be retrieved, but only one oocyte could be fertilized by IVF. Vaginal progesterone treatment was started the day of the egg retrieval. The embryo was transferred at day 2. Two weeks later the pregnancy test was positive.

growth of the endometrium [1]	Compound	oocytes fertilized by IVF ([2]; of the two mature eggs retrieved)	follicle size ([2]; person, 50mg Clomiphene citrate on day 6, 8 and 10 of the cycle, day 11, two follicles on the left ovary (12mm and 11mm on day 6))	Serum estradiol ([2]; person, 50mg on day 6, 8 and 10 of the cycle, measured on day 11 (113 pg/mL on day 6))	LH ([2]; person, 50mg on day 6, 8 and 10 of the cycle, measured on day 11 (5.6 IU/L on day 6))	mature eggs retrieved ([2]; retrieval 36 hours after ovulation induction with 0.2mg triptorelix on the evening of day 12)	pregnancy test ([2]; two weeks after embryo transfer at day 2, same cycle)
inhibited	CCN(CC)CCOc1ccc(C(=C(Cl)c2ccccc2)c2ccccc2)cc1 [Clomiphene]	–	–	–	–	–	–
–	CCN(CC)CCOc1ccc(C(=C(Cl)c2ccccc2)c2ccccc2)cc1 [Clomiphene citrate]	only one	19 mm and 15 mm	621 pg/mL	7.4 IU/L	Two	positive
